{"source": "patent US20130197073A1", "about": "“HYPOCHOLESTEROLEMIC, ANTI-INFLAMMATORY AND ANTIEPILEPTIC NEUROPROTECTIVE COMPOUND” (NEURON BIOPHARMA, S.A., priority 2010, published 2013)", "key": {"[1]": {"tested_on": "TNFα", "test": "LPS model of systemic inflammation in mice, plasma TNFα, NST0060 compared with simvastatin", "type": "in vivo", "details": "two i.p. doses of 50 mg/kg (lactone forms); 2 hours after LPS 8 mg/kg i.p.", "excerpt": "The investigators considered necessary to evaluate alternative activities with respect to hypocholesterolemic and neuroprotective activities given the characteristics and properties of the molecule. […] To evaluate this activity, a model of systemic shock in mice induced by lipopolysaccharide (LPS), a component of the gram negative bacteria structure that induces a cytokine-mediated, mainly TNFα-mediated, inflammatory response was used.\n(§1) All the animals included during the experimental process were 12-week old male C57BL6 mice. The experiments were carried out strictly complying with the standard entitled Guidance on the Operation of Animals (Scientific Procedures, Act. 1986). The animals were subjected to their respective quarantine period and were treated with maximum precaution to minimize possible contaminations during treatments and handling.\nIn both cases 0.5% methyl cellulose in physiological saline, which was administered to mice in the control group with the same administration regimen, was used as a vehicle. Peripheral systemic inflammation was induced one hour after the last treatment by means of a single i.p. injection of LPS at 8 mg/kg. Two hours later blood was taken and plasma was obtained, which was used to evaluate the anti-inflammatory effect by analyzing plasma concentrations of TNFα by means of ELISA."}, "[2]": {"tested_on": "human neuroblastoma SK-N-MC cells", "test": "Protection against neuronal death induced by oxidative stress (xanthine/xanthine oxidase), WST-1", "type": "cell-based", "details": "NST0060 at 10 μM; 10 μM xanthine/60 mU/mL xanthine oxidase, 22 hours; protection significant from 1 to 40 μM", "experimental": "The assay was performed on human neuroblastoma SK-N-MC cells in culture from the American Type Culture Collection (ATCC), in all cases strict rules of sterility were followed and the manipulation was performed in class II biological safety cabinets following European standard EN 12469. The cells were maintained in the following culture medium: Minimum Essential Medium Eagle (MEM) supplemented with 1 mM sodium pyruvate, 2 mM L-glutamine, 0.1 mM non-essential amino acids, 0.05 mg/ml gentamicin and 10% fetal bovine serum.\nThe inhibition caused by compound NST0060 with respect to cell death caused by treatment with xanthine/xanthine oxidase which generates oxidative damage (produces free radicals such as hydrogen peroxide, superoxide anion, hydroxyl radical), which triggers cell death, was analyzed. These cells, not exceeding 15 passages, were seeded on 96-well plates treated for adherent cells with a cell concentration of 5×10^4 cells/well; 3 wells of the plate were seeded for each assay condition. […]\nThe cells were incubated (at 37° C. and 5% CO2) with these treatments for 22 hours, after which time WST-1 reagent (Roche) was added. […] The formazan which is formed can be detected colorimetrically since it has an absorbance of 440 nm. The reading was taken in a plate reader at 440 nm 2 hours after adding the reagent."}, "[3]": {"tested_on": "FVB/NHan mice", "test": "Kainate (KA) model of epilepsy in mice, convulsions, status epilepticus, latency, Racine scale", "type": "in vivo", "experimental": "as §1, with “males from the FVB/NHan strain.” for “male C57BL6 mice.”, “inoculations” for “treatments”\nThe animals were intraperitoneally inoculated with 25 mg/kg of kainate (KA) dissolved in PBS. Fourteen animals were pretreated at 24 and 0.5 hours before inoculation with KA by means of intraperitoneal injection with 0.25% methyl cellulose in PBS (vehicle+KA administration regimen), and 14 were pretreated at 24 and 0.5 hours before inoculation with KA by means of intraperitoneal injection with compound NST0060 at a dose of 50 mg/kg (NST0060+KA administration regimen). After inoculation, the animals were individually housed in trays to monitor them. The maximum level of epilepsy of the animals was recorded during the observation according to the Racine scale every ten minutes and for at least 120 minutes post-inoculation (m.p.i.)."}, "[4]": {"tested_on": "FVB/NHan mice", "test": "Death caused by acute administration of kainate in mice, survival", "type": "in vivo", "details": "50 mg/kg i.p. at 24 and 0.5 hours before KA 25 mg/kg and daily up to 7 days; p<0.05", "experimental": "as §1, with “males from the FVB/NHan strain.” for “male C57BL6 mice.”, “inoculations” for “treatments”\nThe animals were intraperitoneally inoculated with 25 mg/kg of kainate (KA) dissolved in PBS. Fourteen animals were pretreated at 24 and 0.5 hours before inoculation with KA and subsequently on a daily basis up to 7 days post-inoculation by means of intraperitoneal injection with 0.25% methyl cellulose in PBS as a vehicle (vehicle+KA administration regimen) and 14 were pretreated at 24 and 0.5 hours before inoculation with KA and subsequently on a daily basis up to 7 days post-inoculation by means of intraperitoneal injection with compound NST0060 at a dose of 50 mg/kg (NST0060+KA administration regimen). After inoculation, the animals were individually housed in trays to monitor them."}}, "data": [{"smiles": "CCCC(CCC)C(=O)O[C@H]1C[C@@H](C)C=C2C=C[C@H](C)[C@H](CC[C@@H]3C[C@@H](O)CC(=O)O3)[C@H]21", "note": "[NST0060, 2-propylpentanoic acid (1S,3R,7S,8S,8aR)-1,2,3,7,8,8a-hexahydro-3,7-dimethyl-8-[2-[(2R,4R)-tetrahydro-4-hydroxy-6-oxo-2H-pyran-2-yl]ethyl]-1-naphthalenyl ester]", "values": [{"measurement": "TNFα plasma levels with respect to the control group", "setting": "[1]", "value": "large decrease in said levels that is significant with respect to the control group"}, {"measurement": "TNFα plasma levels with respect to the simvastatin group", "setting": "[1]", "value": "statistically significant TNFα plasma level reductions with respect to the group of simvastatin"}, {"measurement": "maximum protection against cell death caused by XXO", "setting": "[2]", "value": 80, "unit": "%"}, {"measurement": "Status epilepticus, percentage of animals with tonic-clonic seizures lasting at least 30 minutes", "setting": "[3]; 50 mg/kg i.p. at 24 and 0.5 hours before KA 25 mg/kg i.p., vehicle+KA 79%", "value": 29, "unit": "%"}, {"measurement": "Convulsions, percentage of animals with tonic-clonic seizures", "setting": "[3]; 50 mg/kg i.p. at 24 and 0.5 hours before KA 25 mg/kg i.p., vehicle+KA 93%", "value": 36, "unit": "%"}, {"measurement": "latency (time when the first convulsions occurred)", "setting": "[3]; 50 mg/kg i.p. at 24 and 0.5 hours before KA 25 mg/kg, mean±SEM, vehicle+KA 45.7±7.5", "value": "100.1 ± 7.3", "unit": "min"}, {"measurement": "mean level of epilepsy on the Racine scale", "setting": "[3]; 50 mg/kg i.p., two hours after KA, vehicle+KA above 4", "value": "≤ 3"}, {"measurement": "mortality caused by KA", "setting": "[4]", "value": "reduces mortality observed in a statistically significant manner"}]}]}
